The target of one experiment is κ opioid receptor (Homo sapiens (Human), UniProt P41145). Description: κ-opioid receptor [35S]GTPγS functional assay, U-2 OS cells. It is filed as biochemical. The conditions noted are these: κ GTP; for EC50: read-out: Activity Response κ EC50 (nM) [mean ± SEM]; for Emax: relative to U69,593, read-out: Activity Response κ Emax (%). Here is the method:
Membranes from HEK-293 cells, CHO or U-2 OS cells expressing the recombinant human kappa opioid receptor (κ) were prepared by lysing cells in ice cold hypotonic buffer (2.5 mM MgCl2, 50 mM HEPES, pH 7.4) (10 mL/10 cm dish) followed by homogenization with a tissue grinder/Teflon pestle. Membranes were collected by centrifugation at 30,000×g for 15 min at 4° C. and pellets were resuspended in hypotonic buffer to a final concentration of 1-3 mg/mL. Protein concentrations were determined using the BioRad protein assay reagent with bovine serum albumen as standard. Aliquots of κ receptor membranes were stored at −80° C.
Functional [^35S]GTPγS binding assays were conducted as follows. κ opioid receptor membrane solution was prepared by sequentially adding final concentrations of 0.026 μg/μl κ membrane protein (in-house), 10 μg/mL saponin, 3 μM GDP and 0.20 nM [^35S]GTPγS to binding buffer (100 mM NaCl, 10 mM MgCl2, 20 mM HEPES, pH 7.4) on ice. The prepared membrane solution (190 μl/well) was transferred to 96-shallow well polypropylene plates containing 10 μl of 20× concentrated stock solutions of agonist prepared in DMSO. Plates were incubated for 30 min at a temperature of about 25° C. with shaking. Reactions were terminated by rapid filtration onto 96-well Unifilter GF/B filter plates (Perkin Elmer, Shelton, Conn.) using a 96-well tissue harvester (Packard) and followed by three filtration washes with 200 μl ice-cold binding buffer (10 mM NaH2PO4, 10 mM Na2HPO4, pH 7.4). Filter plates were subsequently dried at 50° C. for 2-3 hours. Fifty μl/well scintillation cocktail (Perkin Elmer, Shelton, Conn.) was added and plates were counted in a Packard Top-Count for 1 min/well.
κ GTP EC50 is the concentration of a compound providing 50% of the maximal response for the compound at a κ receptor.
κ GTP Emax (%) is the maximal effect elicited by a compound relative to the effect elicited by U69,593.
In TABLE 3, binding affinity of certain Compounds of the Invention to the μ- and κ-opioid receptors was determined as described above. In TABLE 4, activity response of certain Compounds of the Invention to the μ- and κ-opioid receptors was determined as described above for functional assays using HEK-293 cells. In TABLE 5, activity response of certain Compounds of the Invention to the μ- and κ-opioid receptors was determined as described above using U-2 OS cells.
On the technique in general: Binding of GTPγS marks nucleotide exchange on a G protein.

Another experiment concerns the target μ-opioid receptors (Homo sapiens (Human), UniProt P35372). Description: μ-opioid receptor [35S]GTPγS functional assay, U-2 OS cells. It counts as biochemical. The conditions noted are these: μ GTP; for EC50: read-out: Activity Response μ EC50 (nM) [mean ± SEM]; for Emax: relative to DAMGO, read-out: Activity Response μ Emax (%). On the procedure: [^35S]GTPγS functional assays were conducted using freshly thawed μ-receptor membranes prepared from a cell line expressing recombinant μ opioid receptor in a HEK-293, CHO or U-2 OS cell background or purchased from a commercial source (Perkin Elmer, Shelton, Conn.; or DiscovRx, Fremont, Calif.). Assay reactions were prepared by sequentially adding the following reagents to binding buffer (100 mM NaCl, 10 mM MgCl2, 20 mM HEPES, pH 7.4) on ice (final concentrations indicated): membrane protein (0.026 mg/mL), saponin ([…]), GDP ([…]) and [^35S]GTPγS (0.20 nM; Perkin Elmer, Shelton, Conn.). The prepared membrane solution (190 μl/well) was transferred to 96-shallow well polypropylene plates containing 10 μl of 20× concentrated stock solutions of the agonist [D-Ala^2, N-methyl-Phe^4 Gly-ol^5]-enkephalin (DAMGO) prepared in dimethyl sulfoxide (DMSO). Plates were incubated for 30 min at about 25° C. with shaking. Reactions were terminated by rapid filtration onto 96-well Unifilter GF/B filter plates (Perkin Elmer, Shelton, Conn.) using a 96-well tissue harvester (Perkin Elmer, Shelton, Conn.) followed by three filtration washes with 200 μl of ice-cold wash buffer (10 mM NaH2PO4, 10 mM Na2HPO4, pH 7.4). Filter plates were subsequently dried at 50° C. for 2-3 hours. BetaScint scintillation cocktail (Perkin Elmer, Shelton, Conn.) was added (50 μl/well) and plates were counted using a Packard Top-Count for 1 min/well. Data were analyzed using the sigmoidal dose-response curve fitting functions in GraphPad PRISM v. 3.0, or an in-house function for non-linear, sigmoidal dose-response curve-fitting.
μ GTP EC50 is the concentration of a compound providing 50% of the maximal response for the compound at a μ-opioid receptor.
μ GTP Emax (%) is the maximal effect elicited by a compound relative to the effect elicited by DAMGO, a standard μ agonist. Generally, the μ GTP Emax (%) value measures the efficacy of a compound to treat or prevent pain or other Conditions.
The following tables provide results on the efficacy of binding and activity response of exemplified Compounds of the Invention at the μ- and κ-opioid receptors. In TABLE 3, binding affinity of certain Compounds of the Invention to the μ- and κ-opioid receptors was determined as described above. In TABLE 4, activity response of certain Compounds of the Invention to the μ- and κ-opioid receptors was determined as described above for functional assays using HEK-293 cells. In TABLE 5, activity response of certain Compounds of the Invention to the μ- and κ-opioid receptors was determined as described above using U-2 OS cells.

The term EC50 denotes the concentration giving half of the maximal effect. As usually defined, the Emax is the maximal effect, on the per cent scale that the assay sets.

`CC(C)CCCC(=O)N[C@H]1C[C@@]2(O)[C@H]3Cc4ccc(O)cc4[C@@]2(CCN3CC2CC2)CC1=O` [Compound 31, N-((4bR,7S,8aS,9R)-11-(cyclopropylmethyl)-3,8a-dihydroxy-6-oxo-6,7,8,8a,9,10-hexahydro-5H-9,4b-(epiminoethano)phenanthren-7-yl)-5-methylhexanamide]: on κ opioid receptor, the EC50 came out at 2.59 ± 0.14 nM and the Emax turned out to be 90.7 ± 6.57%. Further, at μ-opioid receptors, the EC50 was 9.65 ± 0.22 nM and the Emax stood at 73.7 ± 2.6%.
The corresponding values for `CC(C)(C)C(=O)N[C@H]1C[C@@]2(O)[C@H]3Cc4ccc(O)cc4[C@@]2(CCN3CC2CC2)CC1=O` [Compound 32, N-((4bR,7S,8aS,9R)-11-(cyclopropylmethyl)-3,8a-dihydroxy-6-oxo-6,7,8,8a,9,10-hexahydro-5H-9,4b-(epiminoethano)phenanthren-7-yl)pivalamide] are 17.5 ± 2.66 nM, 113 ± 3.61%, 18.6 ± 8.05 nM and 11.3 ± 0.88%.
The corresponding values for `CC(C)CC(=O)N[C@H]1C[C@@]2(O)[C@H]3Cc4ccc(O)cc4[C@@]2(CCN3CC2CC2)CC1=O` [Compound 33, N-((4bR,7S,8aS,9R)-11-(cyclopropylmethyl)-3,8a-dihydroxy-6-oxo-6,7,8,8a,9,10-hexahydro-5H-9,4b-(epiminoethano)phenanthren-7-yl)-3-methylbutanamide] are 36.1 ± 3.14 nM, 52 ± 4.93%, above 200000 nM and 2.5%.
The corresponding values for `O=C(N[C@H]1C[C@@]2(O)[C@H]3Cc4ccc(O)cc4[C@@]2(CCN3CC2CC2)CC1=O)C1CC1` [Compound 34, N-((4bR,7S,8aS,9R)-11-(cyclopropylmethyl)-3,8a-dihydroxy-6-oxo-6,7,8,8a,9,10-hexahydro-5H-9,4b-(epiminoethano)phenanthren-7-yl)cyclopropanecarboxamide] are 12.6 ± 2.04 nM, 101 ± 3.33%, above 200000 nM and 6.33 ± 2.19%.
As to `O=C(N[C@H]1C[C@@]2(O)[C@H]3Cc4ccc(O)cc4[C@@]2(CCN3CC2CC2)CC1=O)C1CCCC1` [Compound 35, N-((4bR,7S,8aS,9R)-11-(cyclopropylmethyl)-3,8a-dihydroxy-6-oxo-6,7,8,8a,9,10-hexahydro-5H-9,4b-(epiminoethano)phenanthren-7-yl)cyclopentanecarboxamide], at κ opioid receptor, the EC50 worked out at 13.6 ± 1.04 nM and the Emax came to 85.7 ± 2.4%. For the same molecule, at μ-opioid receptors, the EC50 was above 200000 nM and the Emax worked out at 2%.
The corresponding values for `O=C(N[C@H]1C[C@@]2(O)[C@H]3Cc4ccc(O)cc4[C@@]2(CCN3CC2CC2)CC1=O)c1ccccc1` [Compound 36, N-((4bR,7S,8aS,9R)-11-(cyclopropylmethyl)-3,8a-dihydroxy-6-oxo-6,7,8,8a,9,10-hexahydro-5H-9,4b-(epiminoethano)phenanthren-7-yl)benzamide] are 4.28 ± 0.6 nM, 99 ± 4.73%, 12.7 ± 2.92 nM and 20.3 ± 0.33%.
The corresponding values for `CC[C@H](C)C(=O)N[C@H]1C[C@@]2(O)[C@H]3Cc4ccc(O)cc4[C@@]2(CCN3CC2CC2)CC1=O` [Compound 37, (S)-N-((4bR,7S,8aS,9R)-11-(cyclopropylmethyl)-3,8a-dihydroxy-6-oxo-6,7,8,8a,9,10-hexahydro-5H-9,4b-(epiminoethano)phenanthren-7-yl)-2-methylbutanamide] are 42.1 ± 7.56 nM, 71.3 ± 5.7%, above 200000 nM and 6 ± 1.53%.
The corresponding values for `O=C(N[C@H]1C[C@@]2(O)[C@H]3Cc4ccc(O)cc4[C@@]2(CCN3CC2CC2)CC1=O)C1CCCCC1` [Compound 38, N-((4bR,7S,8aS,9R)-11-(cyclopropylmethyl)-3,8a-dihydroxy-6-oxo-6,7,8,8a,9,10-hexahydro-5H-9,4b-(epiminoethano)phenanthren-7-yl)cyclohexanecarboxamide] are 2.3 ± 0.25 nM, 95.3 ± 5.21%, 10.3 ± 1.72 nM and 40.3 ± 1.45%.
As for `COc1ccc2c(c1)[C@]13CCN(C)[C@H](C2)[C@]1(O)C[C@H](CCOCc1ccccc1)C(=O)C3` [Compound 50, (4bR,7S,8aS,9R)-7-(2-(benzyloxy)ethyl)-8a-hydroxy-3-methoxy-11-methyl-8,8a,9,10-tetrahydro-5H-9,4b-(epiminoethano)phenanthren-6(7H)-one], at κ opioid receptor, the EC50 was found to be 7900 ± 707 nM and the Emax came out at 74 ± 5.29%. Moreover, on μ-opioid receptors, the EC50 amounted to 148 ± 10.4 nM and the Emax was found to be 102 ± 1.67%.
The corresponding values for `O=C1C[C@]23CCN(CC4CC4)[C@H](Cc4ccc(OCc5ccccc5)cc42)[C@]3(O)C[C@@H]1CCO` [Compound 58, (4bR,7S,8aS,9R)-3-(benzyloxy)-11-(cyclopropylmethyl)-8a-hydroxy-7-(2-hydroxyethyl)-8,8a,9,10-tetrahydro-5H-9,4b-(epiminoethano)phenanthren-6(7H)-one] are 839 ± 9.9 nM, 96 ± 6.35%, 787 ± 242 nM and 43.7 ± 3.93%.
The corresponding values for `CCOC(=O)C[C@H]1C[C@@]2(O)[C@H]3Cc4ccc(OC)cc4[C@@]2(CCN3C)CC1=O` [Compound 59, ethyl 2-((4bR,7R,8aS,9R)-8a-hydroxy-3-methoxy-11-methyl-6-oxo-6,7,8,8a,9,10-hexahydro-5H-9,4b-(epiminoethano)phenanthren-7-yl)acetate] are above 200000 nM, 59 ± 1.53%, 11500 ± 903 nM and 100 ± 4.62%.
Consider `CN1CC[C@]23CC(=O)[C@@H](CC(=O)O)C[C@@]2(O)[C@H]1Cc1ccc(O)cc13` [Compound 61, 2-((4bR,7R,8aS,9R)-3,8a-dihydroxy-11-methyl-6-oxo-6,7,8,8a,9,10-hexahydro-5H-9,4b-(epiminoethano)phenanthren-7-yl)acetic acid], for which, at κ opioid receptor, the EC50 is 963 ± 83 nM and the Emax turned out to be 90 ± 10%. Besides, at μ-opioid receptors, the EC50 is 466 ± 81 nM and the Emax worked out at 77.3 ± 2.03%.
The corresponding values for `COc1ccc2c(c1)[C@]13CCN(CC4CC4)[C@H](C2)[C@]1(O)C/C(=C\CC(C)C)C(=O)C3` [Compound 62, (4bR,8aS,9R,E)-11-(cyclopropylmethyl)-8a-hydroxy-3-methoxy-7-(3-methylbutylidene)-8,8a,9,10-tetrahydro-5H-9,4b-(epiminoethano)phenanthren-6(7H)-one] are 3070 ± 233 nM, 62.7 ± 4.37%, above 200000 nM and 27.5%.

Source of the values: US9388162B2, “Substituted morphinans and the use thereof” (Purdue Pharma L.P., priority 2012, dated 2016).
